Source: BindingDB's records for doi:10.1016/j.bmc.2009.07.051 (La Rochelle University, 2009)

Columns and labels:
[1] = target: Cyclin-dependent kinase 5 activator 1 (Homo sapiens, UniProt Q15078+Q00535); test: Inhibition of GST-fused CDK5/p25 expressed in Escherichia coli assessed as [gamma-33P]ATP incorporation after 10 mins by scintillation counting
[2] = target: Dual specificity tyrosine-phosphorylation-regulated kinase 1A (Rattus norvegicus, UniProt Q63470); test: Inhibition of GST-fused rat recombinant DYRK1A expressed in Escherichia coli assessed as [gamma-33P]ATP incorporation after 10 mins by scintillation counting

Sequence of Cyclin-dependent kinase 5 activator 1 (Q15078 whole entry, the tested form may be a part): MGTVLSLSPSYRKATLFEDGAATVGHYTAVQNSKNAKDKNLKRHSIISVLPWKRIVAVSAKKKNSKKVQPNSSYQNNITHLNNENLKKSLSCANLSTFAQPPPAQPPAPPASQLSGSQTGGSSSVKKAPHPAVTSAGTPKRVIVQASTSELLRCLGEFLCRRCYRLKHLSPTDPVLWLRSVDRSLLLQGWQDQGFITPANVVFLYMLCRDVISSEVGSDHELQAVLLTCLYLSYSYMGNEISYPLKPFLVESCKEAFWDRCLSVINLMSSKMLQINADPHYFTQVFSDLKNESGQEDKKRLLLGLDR
Sequence of Cyclin-dependent kinase 5 activator 1 (Q00535 whole entry, the tested form may be a part): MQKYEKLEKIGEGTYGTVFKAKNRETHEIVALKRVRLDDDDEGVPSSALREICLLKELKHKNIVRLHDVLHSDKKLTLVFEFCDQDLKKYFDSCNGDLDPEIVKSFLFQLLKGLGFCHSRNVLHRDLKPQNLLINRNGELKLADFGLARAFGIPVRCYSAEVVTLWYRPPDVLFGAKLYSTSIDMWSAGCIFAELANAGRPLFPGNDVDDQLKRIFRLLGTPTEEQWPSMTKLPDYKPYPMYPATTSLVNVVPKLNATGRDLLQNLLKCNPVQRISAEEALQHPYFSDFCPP

Row | Structure (SMILES) | IC50 [1] [µM] | IC50 [2] [µM]
1 | O=C1C(C2C(=O)Nc3cc([N+](=O)[O-])ccc32)=Nc2ccc(Br)cc21 (stereo unspecified) | > 10 | 
2 | O=C1C(C2C(=O)Nc3cc([N+](=O)[O-])ccc32)=Nc2ccccc21 (stereo unspecified) [(2''Z)-6-Nitroindirubin] | > 10 | 
3 | O=C1C(C2C(=O)Nc3c(Br)cc([N+](=O)[O-])cc32)=Nc2ccc(Br)cc21 (stereo unspecified) [(2'Z)-5'-7-Dibromo-5-nitroindirubin] | > 10 | > 10
4 | O=C1N=c2c(Br)cc([N+](=O)[O-])cc2=C1c1[nH]c2ccccc2c1O [(2'Z)-7-Bromo-5-nitroindirubin] | > 10 | > 10
5 | Nc1ccc2c(c1)C(c1[nH]c3ccc(Br)cc3c1N=O)C(=O)N2 (stereo unspecified) [(Z)-5'-Amino-5-bromo-1H,1'H-[2,3']biindolylidene-3,2'-dione 3-oxime] |  | > 10
6 | O=C1N=c2ccc([N+](=O)[O-])cc2=C1c1[nH]c2ccccc2c1O [(Z)-5'-Nitro-1H,1'H-[2,3']biindolylidene-3,2'-dione] |  | > 10
7 | O=Nc1c(C2C(=O)Nc3c(Br)cc([N+](=O)[O-])cc32)[nH]c2ccc(Br)cc12 (stereo unspecified) [(Z)-5,7'-Dibromo-5'-nitro-1H,1'H-[2,3']biindolylidene-3,2'-dione 3-oxime] | > 10 | > 10
8 | O=Nc1c(C2C(=O)Nc3ccc([N+](=O)[O-])cc32)[nH]c2ccc(Br)cc12 (stereo unspecified) [(Z)-5-Bromo-5'-nitro-1H,1'H-[2,3']biindolylidene-3,2'-dione 3-oxime] |  | > 10
9 | O=C1C(C2C(=O)Nc3ccc([N+](=O)[O-])cc32)=Nc2ccc(Br)cc21 (stereo unspecified) [(Z)-5-Bromo-5'-nitro-1H,1'H-[2,3']biindolylidene-3,2'-dione] | > 10 | > 10
10 | O=Nc1c(C2C(=O)Nc3c(Br)cc([N+](=O)[O-])cc32)[nH]c2ccccc12 (stereo unspecified) [(Z)-7'-Bromo-5'-nitro-1H,1'H-[2,3']biindolylidene-3,2'-dione 3-oxime] | > 10 | > 10
11 | CC(=O)Nc1ccc2c(c1)C(c1[nH]c3ccc(Br)cc3c1N=O)C(=O)N2 (stereo unspecified) [N-{(Z)-5-Bromo-3-[(E)-hydroxyimino]-2'-oxo-1,3,1',2'-tetrahydro-[2,3']biindolyliden-5'-yl}-acetamide] |  | > 10
